Data from patent publication US20120065195A1, “COMPOUNDS FOR TREATING NEURODEGENERATIVE DISEASES” (priority 2010, published 2012).

These molecules were tested against T1, BACE1 (Homo sapiens, UniProt P56817) (assay: Cellular BACE1 Inhibition Assay (in vitro cellular Amyloidβ 1-40 production assay, HTRF immunoassay)).
T1 construct: endogenous in cells; host or cells: HEK-293 (stably transfected with wild type APP695 only)
Format: cell-based
Protocol: The BACE inhibition properties of the compounds of the invention may be determined by the following in vitro cellular Amyloidβ 1-40 production assay.
Inhibition of Amyloidβ1-40 production was determined by incubating cells with compound for 48 hours and quantifying the level of Amyloidβ 1-40 using an HTRF immunoassay.
Materials and Methods: HEK-293 cells stably transfected with a DNA construct containing the coding sequence for the wild type APP695 sequence were grown in DMEM supplemented with 10% fetal bovine serum, penicillin/streptomycin and 150 μg/mL G418. Cells were plated in 96-well plates at 35,000 cells/well and allowed to attach for 8-12 hours. Media was changed to DMEM supplemented with 10% fetal bovine serum, penicillin/streptomycin 15 minutes prior to compound addition. Diluted compounds were then added at a final concentration of 0.5% DMSO. After 48 hours, 4 μL of media from each well was added to a corresponding well of a 384 well plate (Perkin Elmer Cat#6008280) containing the HTRF reagents. HTRF reagents were obtained from the CisBio Amyloidβ 1-40 peptide assay kit (Cat#62B40PEC) and were prepared as follows anti-peptide β (1-40)-Cryptate and anti-peptide β (1-40)-XL655 were stored in 2 plate aliquots at −80° C. Diluent and Reconstitution buffer were stored at 4° C. Aliquots of the two antibodies were diluted 1:100 with Reconstitution buffer, and this mixture was diluted 1:2 with Diluent. 12 μL of the reagent mixture was added to the required wells of the 384 well assay plate. The assay plate was incubated at 4° C. for 17 hours and then analyzed for fluorescence at 665 and 620 nm.

T1 sequence (P56817 46-501): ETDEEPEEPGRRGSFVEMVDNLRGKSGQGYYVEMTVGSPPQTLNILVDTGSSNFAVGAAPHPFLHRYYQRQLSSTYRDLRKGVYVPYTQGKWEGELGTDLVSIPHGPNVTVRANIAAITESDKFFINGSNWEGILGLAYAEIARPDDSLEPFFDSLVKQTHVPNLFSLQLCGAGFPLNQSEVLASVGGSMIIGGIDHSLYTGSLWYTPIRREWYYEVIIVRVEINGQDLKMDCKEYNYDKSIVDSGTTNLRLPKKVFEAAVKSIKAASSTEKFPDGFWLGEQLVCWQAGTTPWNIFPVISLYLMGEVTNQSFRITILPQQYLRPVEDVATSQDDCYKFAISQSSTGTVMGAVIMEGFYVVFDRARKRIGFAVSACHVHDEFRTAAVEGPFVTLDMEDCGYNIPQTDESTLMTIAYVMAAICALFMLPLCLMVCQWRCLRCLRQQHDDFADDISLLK

Row | Structure (SMILES) | IC50
1 | CN1C(=O)[C@@]2(N=C1N)c1cc(-c3cccc(Cl)c3)ccc1CC[C@H]2CC1CCN(CC(F)F)CC1 [Example 32, (1′S,2′S)-2-amino-7′-(3-chlorophenyl)-2′-((1-(2,2-difluoroethyl)piperidin-4-yl)methyl)-1-methyl-3′,4′-dihydro-2′H-spiro[imidazole-4,1′-naphthalen]-5(1H)-one] | 48.6 nM
2 | CN1C(=O)CC2(CC(C)(C)Cc3ccc(-c4cccnc4F)cc32)N=C1N (stereo not drawn) [Example 96, 2′-amino-7-(2-fluoropyridin-3-yl)-1′,3,3-trimethyl-3,4-dihydro-1′H,2H-spiro[naphthalene-1,4′-pyrimidin]-6′(5′H)-one] | 1320 nM
3 | CN1C(=O)[C@@]2(N=C1N)c1cc(-c3cccc(Cl)c3)ccc1CC[C@@H]2CC1CCN(CC(F)F)CC1 [Example 62, (1′S,2′R)-2-amino-7′-(3-chlorophenyl)-2′-((1-(2,2-difluoroethyl)piperidin-4-yl)methyl)-1-methyl-3′,4′-dihydro-2′H-spiro[imidazole-4,1′-naphthalen]-5(1H)-one] | 306 nM
4 | CN1C(=O)C2(N=C1N)c1cc(-c3cccnc3F)ccc1CC(C)(C)C2F (stereo not drawn) [Example 156, 2-amino-2′-fluoro-7′-(2-fluoropyridin-3-yl)-1,3′,3′-trimethyl-3′,4′-dihydro-2′H-spiro[imidazole-4,1′-naphthalen]-5(1H)-one] | 17.2 nM
5 | CN1C(=O)C2(N=C1N)c1cc(-c3cccnc3F)ccc1CC(C)(C)C2(F)F (stereo not drawn) [Example 159, 2-amino-2′,2′-difluoro-7′-(2-fluoropyridin-3-yl)-1,3′,3′-trimethyl-3′,4′-dihydro-TH-spiro[imidazole-4,1′-naphthalen]-5(1H)-one] | 26.1 nM
6 | CN1C(=O)C2(CC(C)(C)Cc3ccc(-c4cc(C(F)(F)F)ccn4)cc32)N=C1N (stereo not drawn) [Example 139, 2-amino-1,3′,3′-trimethyl-7′-(4-(trifluoromethyl)pyridin-2-yl)-3′,4′-dihydro-2′H-spiro[imidazole-4,1′-naphthalen]-5(1H)-one] | 14.8 nM
7 | CN1C(=O)C2(CC(C)(C)Cc3ccc(C#CC4CC4)cc32)N=C1N (stereo not drawn) [Example 17, 2-amino-7′-(cyclopropylethynyl)-1,3′,3′-trimethyl-3′,4′-dihydro-2′H-spiro[imidazole-4,1′-naphthalen]-5(1H)-one] | 81.9 nM
8 | CN1C(=O)C2(N=C1N)c1cc(-c3cncc(Cl)c3)ccc1CC(C)(C)C2F (stereo not drawn) [Example 158, 2-amino-7′-(5-chloropyridin-3-yl)-2′-fluoro-1,3′,3′-trimethyl-3′,4′-dihydro-2′H-spiro[imidazole-4,1′-naphthalen]-5(1H)-one] | 6.7 nM
9 | Cc1nc(C(=O)Nc2ccc3c(c2)C2(COC(N)=N2)CC(C)(C)C3)co1 (stereo not drawn) [Example 90, N-(2′-amino-3-dimethyl-3,4-dihydro-2H,5′H-spiro[naphthalene-1,4′-oxazole]-7-yl)-2-methyloxazole-4-carboxamide] | 16.8 nM
10 | CN1C(=O)C2(CC(C)(C)Cc3ccc(/C=C/C4CC4)cc32)N=C1N (stereo not drawn) [Example 15, (E)-2-amino-7′-(2-cyclopropylvinyl)-1,3′,3′-trimethyl-3′,4′-dihydro-2′H-spiro[imidazole-4,1′-naphthalen]-5(1H)-one] | 76.7 nM
11 | CC1CCc2ccc(-c3cccc(OC(F)F)c3)cc2C12N=C(N)N(C)C2=O (stereo not drawn) [Example 57, 2-amino-7′-(3-(difluoromethoxy)phenyl)-1,2′-dimethy1-3′,4-dihydro-2′H-spiro[imidazole-4,1′-naphthalen]-5(1H)-one] | 363 nM
12 | CN1C(=O)C2(CC(C)(C)Cc3ccc(C#CCCCC#N)cc32)N=C1N (stereo not drawn) [Example 18, 6-(2-amino-1,3′,3′-trimethyl-5-oxo-1,3′,4′,5-tetrahydro-2′H-spiro[imidazole-4,1′-naphthalene]-7′-yl)hex-5-ynenitrile] | 37.4 nM
13 | CN1C(=O)C2(CC(C)(C)Cc3ccc(-c4cccc(Cl)c4)nc32)N=C1N (stereo not drawn) [Example 20, 2-amino-2′-(3-chlorophenyl)-1,6′,6′-trimethyl-6′,7′-dihydro-5′H-spiro[imidazole-4,8′-quinolin]-5(1H)-one] | 1430 nM
14 | Cc1cc(C(=O)Nc2ccc3c(c2)C2(CCSC(N)=N2)CC(C)(C)C3)c(C)o1 (stereo not drawn) [Example 95, N-(2′-amino-3,3-dimethyl-3,4,5′,6′-tetrahydro-2H-spiro[naphthalene-1,4′-[1,3]thiazine]-7-yl)-2,5-dimethylfuran-3-carboxamide] | 276 nM
15 | CC1CCc2ccc(-c3cccc(Cl)c3)cc2C12N=C(N)N(C)C2=O (stereo not drawn) [Example 21, 2-amino-7′-(3-chlorophenyl)-1,2′-dimethyl-3′,4′-dihydro-2′H-spiro[imidazole-4,1′-naphthalen]-5(1H)-one] | 226 nM

The next lines start with the values.

Row | IC50 | Structure (SMILES)
16 | 39.6 nM | CN1C(=O)C2(N=C1N)c1cc(-c3cncnc3)ccc1CC(C)(C)C2F (stereo not drawn) [Example 157, 2-amino-2′-fluoro-1,3′,3′-trimethyl-7′-(pyrimidin-5-yl)-3′,4′-dihydro-2′H-spiro[imidazole-4,1′-naphthalen]-5(1H)-one]
17 | 1.3 nM | CN1C(=O)[C@]2(C[C@@](C)(Cc3ccccc3)Cc3ccc(-c4cncc(Cl)c4)cc32)N=C1N [Example 147, (1′R,3′S)-2-amino-3′-benzyl-7′-(5-chloropyridin-3-yl)-1,3′-dimethyl-3′,4′-dihydro-2′H-spiro[imidazole-4,1′-naphthalen]-5(1H)-one]
18 | 104 nM | CN1C(=O)C2(CCCc3ccc(-c4cncnc4)cc32)N=C1N (stereo not drawn) [Example 25, 2-Amino-1-methyl-7′-(pyrimidin-5-yl)-3′,4′-dihydro-2′H-spiro[imidazole-4,1′-naphthalen]-5(1H)-one]
19 | 8.1 nM | Cc1cnc(F)c(-c2ccc3c(c2)C2(CC(C)(C)C3)N=C(N)N(C)C2=O)c1 (stereo not drawn) [Example 135, 2-amino-7′-(2-fluoro-5-methylpyridin-3-yl)-1,3′,3′-trimethyl-3′,4′-dihydro-2′H-spiro[imidazole-4,1′-naphthalen]-5(1H)-one]
20 | 192 nM | CN1C(=O)C2(N=C1N)c1cc(-c3cccc(Cl)c3)ccc1CCC21CCOCC1 (stereo not drawn) [Example 35, 2-amino-7″-(3-chlorophenyl)-1-methyl-2′,3′,5′,6′-tetrahydro-3″,4″-dihydro-2″H-dispiro[midazol-4,1″-naphthalen-2″,4′-pyran]-5(1H)-one]
21 | 3.3 nM | CN1C(=O)[C@]2(C[C@@](C)(CO)Cc3ccc(-c4cc(F)cc(Cl)c4)cc32)N=C1N [Example 144, (1′R,3′S)-2-amino-7′-(3-chloro-5-fluorophenyl)-3′-(hydroxymethyl)-1,3′-dimethyl-3′,4′-dihydro-2′H-spiro[imidazole-4,1′-naphthalen]-5(1H)-one]
22 | 7.9 nM | CN1C(=O)C2(CC(C)(C)Cc3ccc(-c4cncc(C#N)c4)cc32)N=C1N (stereo not drawn) [Example 134, 5-(2-amino-1,3′,3′-trimethyl-5-oxo-1,3′,4′,5-tetrahydro-2′H-spiro[imidazole-4,1′-naphthalene]-7′-yl)nicotinonitrile]
23 | 87.3 nM | CN1C(=O)C2(N=C1N)c1cc(-c3cncnc3)ccc1CC(C)(C)C2(F)F (stereo not drawn) [Example 160, 2-amino-2′,2′-difluoro-1,3′,3′-trimethyl-7′-(pyrimidin-5-yl)-3′,4′-dihydro-2′H-spiro[imidazole-4,1′-naphthalen]-5(1H)-one]
24 | 5.1 nM | Cc1cncc(-c2ccc3c(c2)C2(CC(C)(C)C3)N=C(N)N(C)C2=O)c1 (stereo not drawn) [Example 131, 2-amino-1,3′,3′-trimethyl-7′-(5-methylpyridin-3-yl)-3′,4′-dihydro-2′H-spiro[imidazole-4,1′-naphthalen]-5 (1H)-one]
25 | 27.1 nM | CN1C(=O)[C@]2(N=C1N)c1cc(-c3cncnc3)ccc1C[C@]1(C)CC12 (single isomer, unassigned) [Example 155]
26 | 258 nM | CN1C(=O)C2(CC3(CCOCC3)Cc3ccc(-c4cncnc4)cc32)N=C1N (stereo not drawn) [Example 74, 2-amino-7″-(pyrimidin-5-yl)-1-methyl-2′,3′,5′,6′-tetrahydro-3″,4″-dihydro-2″H-dispiro[imidazol-4,1″- naphthalen-3″,4′-pyran]-5(1H)-one]
27 | 121 nM | CN1C(=O)C2(CC3(CCOCC3)Cc3ccc(-c4cc(F)cc(Cl)c4)cc32)N=C1N (stereo not drawn) [Example 42, 2-amino-7″-(3-fluoro-5-chlorophenyl)-1-methyl-2′,3′,5′,6′-tetrahydro-3″,4″-dihydro-2″H-dispiro[imidazol-4,1″-naphthalen-3″,4′-pyran]-5(1H)-one]
28 | 482 nM | CC1(C)Cc2ccc(-c3cncnc3)cc2C2(CSC(N)=N2)C1 (stereo not drawn) [Example 109, 3,3-dimethyl-7-(pyrimidin-5-yl)-3,4-dihydro-2H,5′H-spiro[naphthalene-1,4′-thiazol]-2′-amine]
29 | 241 nM | CN1C(=O)C2(CC3(CCC3)Cc3ccc(-c4cccc(Cl)c4)cc32)N=C1N (stereo not drawn) [Example 37, 2-amino-7′-(3-chlorophenyl)-1-methyl-5-oxo-3′,4′-dihydro-2′H-dispiro[imidazol-4,1′-naphthalen-3′,1″-cyclobutyl]-5 (1H)-one]
30 | 10.1 nM | CN1C(=O)C2(N=C1N)c1cc(-c3cncnc3)ccc1CCC2(C)C (stereo not drawn) [Example 27, 2-amino-1,2′,2′-trimethyl-7′-(pyrimidin-5-yl)-3′,4′-dihydro-TH-spiro[imidazole-4,1′-naphthalen]-5(1H)-one]
